According to EP4678638A1, “NEW E3 UBIQUITIN LIGASE LIGAND, PROTEIN DEGRADATION AGENT AND USE THEREOF” (priority 2023, dated 2024):

Key:
SR = assay: CCK-8 proliferation, SR; type: cell-based, Human; details: Homo sapiens; Table B6, compounds designed based on the ALK inhibitors; SR cells; read-out: Inhibitory activity (IC50, nM) on tumor cell proliferation, SR
Summary of the method: (§1)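 CCK-8 viability readout; IC50 from growth-inhibition curve fitting. Cells plated, dosed 24h later with a 10-point series, top 10µM, 5-fold steps. Culture at 37°C, 5% CO2.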

H2228 = assay: CCK-8 proliferation, NCI-H2228 (H2228); type: cell-based; details: Homo sapiens, NCI-H2228; Table B6, compounds designed based on the ALK inhibitors; H2228 cells; read-out: Inhibitory activity (IC50, nM) on tumor cell proliferation, H2228
Summary of the method: as §1

MDA-MB-231 = assay: CCK-8 proliferation, MDA-MB-231; type: cell-based; details: Homo sapiens; Table B6, compounds designed based on the ALK inhibitors; MDA-MB-231 cells; read-out: Inhibitory activity (IC50, nM) on tumor cell proliferation, MDA-MB-231
Protocol: The tumor cells used herein were cultured in a cell culture medium listed in table A1 at 37°C in an incubator with 5% CO2. Prior to experimentation, all cell lines used were correctly identified by STR profiling, and tested negative for mycoplasma contamination using a mycoplasma detection kit through routine screenings. Table A1. Tumor cells and cell culture medium used in the present disclosure
IC50 values of the compounds of the present disclosure (including the compounds in Table 1, and compounds of examples) were measured using the Meilun Cell Counting Kit-8 kit from Dalian Meilun Biotech Co., Ltd. Assay details are as follows: tumor cells were seeded in a 96-well plate at a density listed in Table A2. After 24h, 100 µL of the inoculated cells were treated with 0.5µL of the compounds of the present disclosure (including the compounds in Tables 1 and 2, and compounds of examples) at 10 different successively decreasing concentrations (starting at the highest concentration of 10µM; 5-fold serial dilutions). After the cells were treated with the compounds of the present disclosure for a period of time, the cell viability detection reagent was added to the culture medium for cell viability assessment according to the instructions provided with the CCK-8 kit. […] The growth inhibition of the compounds of the present disclosure on cells was plotted by Prism Graphpad software, and the IC50 values of the compounds of the present disclosure were calculated therefrom. […] Seeding protocol and treatment time for tumor cells

MCF7 = assay: CCK-8 proliferation, MCF7 (MCF-7); type: cell-based; details: Homo sapiens, MCF7; Table B6, compounds designed based on the ALK inhibitors; MCF-7 cells; read-out: Inhibitory activity (IC50, nM) on tumor cell proliferation, MCF-7
Summary of the method: as §1

ALK = target: T1, ALK (Homo sapiens, UniProt Q96SW2+Q9HC35+Q9UM73); assay: Western blot degradation of ALK (H2228 Cell); type: cell-based; details: Table D5
T1 construct: evaluate the effects of the compounds of the present disclosure on the expression of target proteins in cells; endogenous in cells; host or cells: H2228
T1 sequence (Q9HC35+Q9UM73 fused): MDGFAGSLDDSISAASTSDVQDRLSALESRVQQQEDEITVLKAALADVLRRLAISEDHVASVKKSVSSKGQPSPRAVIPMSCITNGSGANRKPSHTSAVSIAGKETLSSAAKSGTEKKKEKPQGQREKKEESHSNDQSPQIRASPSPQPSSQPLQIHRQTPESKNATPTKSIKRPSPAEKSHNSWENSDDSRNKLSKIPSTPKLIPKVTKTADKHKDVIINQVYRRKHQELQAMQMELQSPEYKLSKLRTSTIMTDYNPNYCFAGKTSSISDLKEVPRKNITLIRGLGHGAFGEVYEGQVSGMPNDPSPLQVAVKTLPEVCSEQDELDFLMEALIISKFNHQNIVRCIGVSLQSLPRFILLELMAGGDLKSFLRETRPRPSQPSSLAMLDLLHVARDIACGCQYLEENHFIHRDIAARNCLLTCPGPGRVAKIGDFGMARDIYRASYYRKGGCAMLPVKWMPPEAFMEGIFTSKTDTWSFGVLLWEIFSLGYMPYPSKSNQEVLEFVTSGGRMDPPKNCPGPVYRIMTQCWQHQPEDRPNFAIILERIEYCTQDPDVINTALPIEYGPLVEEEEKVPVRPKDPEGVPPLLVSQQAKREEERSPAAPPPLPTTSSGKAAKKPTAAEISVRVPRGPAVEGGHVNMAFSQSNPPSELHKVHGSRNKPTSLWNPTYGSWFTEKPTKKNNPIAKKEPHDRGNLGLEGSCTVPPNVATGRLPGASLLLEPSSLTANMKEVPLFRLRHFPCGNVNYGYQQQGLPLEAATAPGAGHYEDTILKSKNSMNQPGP
T1 sequence (Q96SW2 whole entry): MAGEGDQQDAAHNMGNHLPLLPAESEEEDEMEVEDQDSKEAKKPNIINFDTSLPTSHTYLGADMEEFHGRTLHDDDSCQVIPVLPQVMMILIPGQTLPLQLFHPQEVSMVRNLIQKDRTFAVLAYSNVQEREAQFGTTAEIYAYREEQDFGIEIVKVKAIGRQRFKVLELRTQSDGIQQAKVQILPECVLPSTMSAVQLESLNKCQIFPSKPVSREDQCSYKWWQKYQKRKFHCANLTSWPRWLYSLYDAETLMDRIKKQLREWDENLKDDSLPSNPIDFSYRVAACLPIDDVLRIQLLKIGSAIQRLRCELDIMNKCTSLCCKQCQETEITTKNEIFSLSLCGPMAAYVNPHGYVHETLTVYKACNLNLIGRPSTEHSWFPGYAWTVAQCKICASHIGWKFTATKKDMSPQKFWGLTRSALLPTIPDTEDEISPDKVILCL
T1 sequence (Q16531 whole entry partner): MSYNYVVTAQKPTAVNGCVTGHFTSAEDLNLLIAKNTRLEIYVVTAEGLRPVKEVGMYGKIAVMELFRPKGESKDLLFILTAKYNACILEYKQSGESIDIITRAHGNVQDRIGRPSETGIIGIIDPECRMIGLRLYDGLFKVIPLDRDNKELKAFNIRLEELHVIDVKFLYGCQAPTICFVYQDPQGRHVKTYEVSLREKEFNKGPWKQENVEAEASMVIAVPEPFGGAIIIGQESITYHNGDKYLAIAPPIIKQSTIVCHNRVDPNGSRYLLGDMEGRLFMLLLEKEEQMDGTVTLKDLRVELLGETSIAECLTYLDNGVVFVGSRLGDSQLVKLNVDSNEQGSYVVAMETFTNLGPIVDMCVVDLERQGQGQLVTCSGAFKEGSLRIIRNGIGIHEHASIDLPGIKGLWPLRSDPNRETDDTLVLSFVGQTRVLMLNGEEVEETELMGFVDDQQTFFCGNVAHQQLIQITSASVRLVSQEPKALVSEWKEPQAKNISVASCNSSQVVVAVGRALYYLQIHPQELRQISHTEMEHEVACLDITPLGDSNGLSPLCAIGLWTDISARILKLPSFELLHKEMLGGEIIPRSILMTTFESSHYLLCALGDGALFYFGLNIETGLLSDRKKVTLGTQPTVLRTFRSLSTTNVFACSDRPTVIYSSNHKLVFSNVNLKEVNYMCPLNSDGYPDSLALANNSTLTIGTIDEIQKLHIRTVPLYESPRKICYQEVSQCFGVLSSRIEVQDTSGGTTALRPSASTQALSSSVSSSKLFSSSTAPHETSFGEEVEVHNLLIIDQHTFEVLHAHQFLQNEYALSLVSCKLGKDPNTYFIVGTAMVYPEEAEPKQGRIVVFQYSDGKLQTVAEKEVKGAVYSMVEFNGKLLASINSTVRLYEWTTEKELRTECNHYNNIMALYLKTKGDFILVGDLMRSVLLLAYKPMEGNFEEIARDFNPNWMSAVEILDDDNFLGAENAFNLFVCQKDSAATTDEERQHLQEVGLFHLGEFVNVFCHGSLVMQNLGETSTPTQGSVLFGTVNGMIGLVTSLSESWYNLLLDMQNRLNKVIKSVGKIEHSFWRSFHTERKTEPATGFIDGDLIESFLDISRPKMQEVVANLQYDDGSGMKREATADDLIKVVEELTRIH
Summary of the method: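 Degradation is assessed by immunoblotting lysates of treated cells. Target bands are quantified by grayscale and normalised to an internal control, so degradation rate equals 100% minus % remaining.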

MM.1S = assay: CCK-8 proliferation, MM.1S; type: cell-based; details: Homo sapiens, MM1.S; Table B6, compounds designed based on the ALK inhibitors; MM.1S cells; read-out: Inhibitory activity (IC50, nM) on tumor cell proliferation, MM.1S
Summary of the method: as §1

H1975 = assay: CCK-8 proliferation, NCI-H1975 (H1975); type: cell-based, Human; details: Homo sapiens, NCI-H1975; Table B6, compounds designed based on the ALK inhibitors; H1975 cells; read-out: Inhibitory activity (IC50, nM) on tumor cell proliferation, H1975
Summary of the method: as §1

Compound	IC50 (SR)	IC50 (H2228)	IC50 (MDA-MB-231)	IC50 (MCF7)	Degradation of substrate protein ALK (substrate protein remaining %) (ALK)	IC50 (MM.1S)	IC50 (H1975)
CCc1cc2c(cc1N1CCC(N3CCN(Cc4ccc(N5CCC(=O)NC5=O)c(F)c4)CC3)CC1)C(C)(C)c1[nH]c3cc(C#N)ccc3c1C2=O [GT-07308, 8-(4-(4-(4-(2,4-dioxotetrahydropyrimidin-1(2H)-yl)-3-fluorobenzyl)piperazin-1-yl)piperidin-1-yl)-9-ethyl-6,6-dimethyl-11-oxo-6,11-dihydro-5H-benzo[b]carbazole-3-carbonitrile]	10 to 50 nM	10 to 50 nM	500 to 1000 nM	500 to 1000 nM	–	–	–
CCc1cc2c(cc1N1CCC(N3CCN(Cc4ccc(N5CCC(=O)NC5=O)cc4F)CC3)CC1)C(C)(C)c1[nH]c3cc(C#N)ccc3c1C2=O [GT-07309, 8-(4-(4-(4-(2,4-dioxotetrahydropyrimidin-1(2H)-yl)-2-fluorobenzyl)piperazin-1-yl)piperidin-1-yl)-9-ethyl-6,6-dimethyl-11-oxo-6,11-dihydro-5H-benzo[b]carbazole-3-carbonitrile]	10 to 50 nM	100 to 500 nM	500 to 1000 nM	–	A (A is defined as 0% ≤ substrate protein remaining % ≤ 80%)	–	–
CCc1cc2c(cc1N1CCC(N3CCN(Cc4cccc(N5CCC(=O)NC5=O)c4)CC3)CC1)C(C)(C)c1[nH]c3cc(C#N)ccc3c1C2=O [GT-07310, 8-(4-(4-(3-(2,4-dioxotetrahydropyrimidin-1(2H)-yl)benzyl)piperazin-1-yl)piperidin-1-yl)-9-ethyl-6,6-dimethyl-11-oxo-6,11-dihydro-5H-benzo[b]carbazole-3-carbonitrile]	1 to 10 nM	100 to 500 nM	500 to 1000 nM	500 to 1000 nM	A (A is defined as 0% ≤ substrate protein remaining % ≤ 80%)	–	–
COc1cc(N2CCC(N3CCN(Cc4ccc(C5CCC(=O)NC5=O)cc4)CC3)CC2)ccc1Nc1ncc(Cl)c(Nc2ccccc2P(C)(C)=O)n1 (stereo not drawn) [GT-07602, 3-(4-((4-(1-(4-((5-chloro-4-((2-(dimethylphosphoryl)phenyl)amino)pyrimidin-2-yl)amino)-3-methoxyphenyl)piperidin-4-yl)piperazin-1-yl)methyl)phenyl)piperidine-2,6-dione]	1 to 10 nM	10 to 50 nM	100 to 500 nM	100 to 500 nM	–	100 to 500 nM	100 to 500 nM
COc1cc(N2CCC(N3CCN(Cc4cccc(N5CCC(=O)NC5=O)c4)CC3)CC2)ccc1Nc1ncc(Cl)c(Nc2ccccc2P(C)(C)=O)n1 [GT-07604, 1-(3-((4-(1-(4-((5-chloro-4-((2-(dimethylphosphoryl)phenyl)amino)pyrimidin-2-yl)amino)-3-methoxyphenyl)piperidin-4-yl)piperazin-1-yl)methyl)phenyl)dihydropyr imidine-2,4(1H,3H)-dione]	1 to 10 nM	10 to 50 nM	500 to 1000 nM	100 to 500 nM	–	500 to 1000 nM	100 to 500 nM
COc1cc(N2CCC(N3CCN(Cc4ccc(N5CCC(=O)NC5=O)cn4)CC3)CC2)ccc1Nc1ncc(Cl)c(Nc2ccccc2P(C)(C)=O)n1 [GT-07606, 1-(6-((4-(1-(4-((5-chloro-4-((2-(dimethylphosphoryl)phenyl)amino)pyrimidin-2-yl)amino)-3-methoxyphenyl)piperidin-4-yl)piperazin-1-yl)methyl)pyridin-3-yl)dihydropyrimidine-2,4(1H,3H)-dione]	1 to 10 nM	50 to 100 nM	100 to 500 nM	100 to 500 nM	–	500 to 1000 nM	100 to 500 nM
COc1cc(N2CCC(N3CCN(Cc4ccc(N5CCC(=O)NC5=O)nc4)CC3)CC2)ccc1Nc1ncc(Cl)c(Nc2ccccc2P(C)(C)=O)n1 [GT-07607, 1-(5-((4-(1-(4-((5-chloro-4-((2-(dimethylphosphoryl)phenyl)amino)pyrimidin-2-yl)amino)-3-methoxyphenyl)piperidin-4-yl)piperazin-1-yl)methyl)pyridin-2-yl)dihydropyrimidine-2,4(1H,3H)-dione]	1 to 10 nM	10 to 50 nM	100 to 500 nM	100 to 500 nM	–	–	100 to 500 nM
COc1cc(N2CCC(N3CCN(Cc4ccnc(C5CCC(=O)NC5=O)c4)CC3)CC2)ccc1Nc1ncc(Cl)c(Nc2ccccc2P(C)(C)=O)n1 (stereo not drawn) [GT-07612, 3-(4-((4-(1-(4-((5-chloro-4-((2-(dimethylphosphoryl)phenyl)amino)pyrimidin-2-yl)amino)-3-methoxyphenyl)piperidin-4-yl)piperazin-1-yl)methyl)pyridin-2-yl)piperidine-2,6-dione]	1 to 10 nM	50 to 100 nM	500 to 1000 nM	–	A (A is defined as 0% ≤ substrate protein remaining % ≤ 80%)	–	100 to 500 nM
COc1cc(N2CCC(N(C)Cc3cccc(N4CCC(=O)NC4=O)c3)CC2)ccc1Nc1ncc(Cl)c(Nc2ccccc2P(C)(C)=O)n1 [GT-07616, 1-(3-(((1-(4-((5-chloro-4-((2-(dimethylphosphoryl)phenyl)amino)pyrimidin-2-yl)amino)-3-methoxyphenyl)piperidin-4-yl)(methyl)amino)methyl)phenyl)dihydropyrimidine-2,4(1H,3H)-dione]	1 to 10 nM	10 to 50 nM	500 to 1000 nM	100 to 500 nM	–	500 to 1000 nM	100 to 500 nM
COc1cc(N2CCC(N(C)Cc3cncc(N4CCC(=O)NC4=O)c3)CC2)ccc1Nc1ncc(Cl)c(Nc2ccccc2P(C)(C)=O)n1 [GT-07695, 1-(5-(((1-(4-((5-chloro-4-((2-(dimethylphosphoryl)phenyl)amino)pyrimidin-2-yl)amino)-3-methoxyphenyl)piperidin-4-yl)(methyl)amino)methyl)pyridin-3-yl)dihydropyrimidine-2,4(1H,3H)-dione]	10 to 50 nM	100 to 500 nM	500 to 1000 nM	100 to 500 nM	–	100 to 500 nM	500 to 1000 nM
CCc1cc2c(cc1N1CCC(N3CCN(Cc4cncc(N5CCC(=O)NC5=O)c4)CC3)CC1)C(C)(C)c1[nH]c3cc(C#N)ccc3c1C2=O [GT-07702, 8-(4-(4-((5-(2,4-dioxotetrahydropyrimidin-1(2H)-yl)pyridin-3-yl)methyl)piperazin-1-yl)piperidin-1-yl)-9-ethyl-6,6-dimethyl-11-oxo-6,11-dihydro-5H-benzo[b]carbazole-3-carbonitrile]	1 to 10 nM	100 to 500 nM	500 to 1000 nM	500 to 1000 nM	–	500 to 1000 nM	500 to 1000 nM
CCc1cc2c(cc1N1CCC(N3CCN(Cc4cc(C5CCC(=O)NC5=O)cnc4F)CC3)CC1)C(C)(C)c1[nH]c3cc(C#N)ccc3c1C2=O (stereo not drawn) [GT-07703, 8-(4-(4-((5-(2,6-dioxopiperidin-3-yl)-2-fluoropyridin-3-yl)methyl)piperazin-1-yl)piperidin-1-yl)-9-ethyl-6,6-dimethyl-11-oxo-6,11-dihydro-5H-benzo[b]carbazole-3-carbonitrile]	1 to 10 nM	50 to 100 nM	500 to 1000 nM	500 to 1000 nM	–	–	–
COc1cc(N2CCN(Cc3ccc(C4CCC(=O)NC4=O)cn3)CC2)ccc1Nc1ncc(Cl)c(Nc2ccccc2P(C)(C)=O)n1 (stereo not drawn) [GT-07713, 3-(6-((4-(4-((5-chloro-4-((2-(dimethylphosphoryl)phenyl)amino)pyrimidin-2-yl)amino)-3-methoxyphenyl)piperazin-1-yl)methyl)pyridin-3-yl)piperidine-2,6-dione]	10 to 50 nM	100 to 500 nM	500 to 1000 nM	–	–	–	–
CCc1cc2c(cc1N1CCC(N3CCOCC3)CC1)C(C)(C)c1[nH]c3cc(C#N)ccc3c1C2=O [alectinib, reference compound]	10 to 50 nM	5000 to 10000 nM	1000 to 5000 nM	5000 to 10000 nM	–	1000 to 5000 nM	1000 to 5000 nM
COc1cc(N2CCC(N3CCN(C)CC3)CC2)ccc1Nc1ncc(Cl)c(Nc2ccccc2P(C)(C)=O)n1 [brigatinib, reference compound]	100 to 500 nM	> 10000 nM	1000 to 5000 nM	1000 to 5000 nM	–	1000 to 5000 nM	> 10000 nM
